Data set [1] can be described thus: Cytotoxicity in PHH natural infection assay (Cell Counting Kit-8). The format is cell-based. To be noted: HBV-infected primary human hepatocytes, CCK8. In a few lines:
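HBV-infected primary human hepatocytes (200 GE/cell, 4% PEG8000, 24 h), sandwich-cultured 72 h, then given compound-containing medium twice at 72 h intervals. Cytotoxicity read by CCK-8 at end of treatment.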

The test system of the next data set is HBeAg. Put plainly: PHH natural infection assay, HBeAg (alphalisa). The note with it: Hepatitis B virus, Hepatocyte, read-out: HBeAg IC50, HBV-infected primary human hepatocytes, supernatant, alphalisa. The format is cell-based, HBV. In a few lines: (§1)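 Cryopreserved PHH plated 24 h, infected with HBV at 200 GE/cell plus 4% PEG8000 for 24 h, then sandwich-cultured 72 h with 0.25 mg/mL matrix gel. Compounds at varied concentrations applied twice at 72-h intervals. Supernatant HBsAg and HBeAg measured by AlphaLISA with specific antibodies.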

Another data set deals with HBsAg. Put plainly: PHH natural infection assay, HBsAg (alphalisa). The format is cell-based, HBV. To be noted: Hepatitis B virus, Hepatocyte, read-out: HBsAg IC50, HBV-infected primary human hepatocytes, supernatant, alphalisa. In a few lines:
as §1

The structures appear in SMILES notation.

`O=C(NC1CC2(C1)CC(c1nc3cc(Cl)ccc3o1)C2)C1CC(C(F)(F)F)C1` (stereo not drawn) [Example 29, N-[6-(5-chloro-1,3-benzoxazol-2-yl)spiro[3.3]heptan-2-yl]-3-(trifluoromethyl)cyclobutanecarboxamide] displayed a CC50 at 144 h in data set [1] above 100 µM. The IC50 with HBeAg is 3.82 µM; with HBsAg, 4.67 µM.

On to `CS(=O)(=O)c1cc(C(=O)NC2CC3(C2)CC(c2nc4cc(Cl)cnc4o2)C3)ccn1` (stereo not drawn) [Example 88, N-[6-(6-chlorooxazolo[5,4-b]pyridin-2-yl)spiro[3.3]heptan-2-yl]-2-methylsulfonyl-pyridine-4-carboxamide], for which, in data set [1], the CC50 at 144 h is above 10 µM. Also, the values for the IC50 in the data set with HBeAg and in the data set on HBsAg were 1.65 µM and 2.42 µM, respectively.

In data set [1], `CN1CC(C(=O)NC2CC3(C2)CC(c2nc4cc(Cl)ccc4o2)C3)CC1=O` (stereo not drawn) [Example 30, N-[6-(5-chloro-1,3-benzoxazol-2-yl)spiro[3.3]heptan-2-yl]-1-methyl-5-oxo-pyrrolidine-3-carboxamide] returned a CC50 at 144 h above 100 µM. The IC50 in the data set on HBeAg is 2.65 µM; in the data set with HBsAg it was 3.89 µM.

The compound `CCN(CC)c1cc(C(=O)NC2CC3(C2)CC(c2nc4cc(Cl)ccc4o2)C3)ccn1` (stereo not drawn) [Example 6, N-[6-(5-chloro-1,3-benzoxazol-2-yl)spiro[3.3]heptan-2-yl]-2-(diethylamino)pyridine-4-carboxamide] yielded a CC50 at 144 h in data set [1] above 10 µM. Further, the IC50 in the data set on HBeAg came to 4.87 µM; with HBsAg, 6.56 µM.

Regarding `Cc1c(Cl)cccc1N1CC(C(=O)NC2CC3(C2)CC(c2nc4cc(Cl)ccc4o2)C3)CC1=O` (stereo not drawn) [Example 33, N-[6-(5-chloro-1,3-benzoxazol-2-yl)spiro[3.3]heptan-2-yl]-1-(3-chloro-2-methyl-phenyl)-5-oxo-pyrrolidine-3-carboxamide], the CC50 at 144 h in data set [1] is 42.8 µM. Moreover, the IC50 with HBeAg came out at 3.07 µM; in the data set on HBsAg it was 3.24 µM.

Regarding `O=C(NC1CC2(C1)CC(c1nc3cc(Cl)ccc3o1)C2)N1CCCC1` (stereo not drawn) [Example 66, N-[6-(5-chloro-1,3-benzoxazol-2-yl)spiro[3.3]heptan-2-yl]pyrrolidine-1-carboxamide], in data set [1], it took 92.1 µM to reach half-maximal cytotoxicity (CC50 at 144 h). Moreover, the IC50 amounted to 1.97 µM with HBeAg and 2.5 µM in the data set on HBsAg.

The compound `O=C(NC1CC2(C1)CC(c1nc3cc(Cl)ccc3o1)C2)C1CCS(=O)(=O)CC1` (stereo not drawn) [Example 53, N-[6-(5-chloro-1,3-benzoxazol-2-yl)spiro[3.3]heptan-2-yl]-1,1-dioxo-thiane-4-carboxamide] yielded a CC50 at 144 h in data set [1] above 100 µM. The results for the IC50 in the data set with HBeAg and in the data set with HBsAg were 5.23 µM and 6.7 µM, respectively.

Consider `O=C(NC1CC2(C1)CC(c1nc3cc(Cl)ccc3o1)C2)c1ccnc(N2CCCCC2)c1` (stereo not drawn) [Example 8, N-[6-(5-chloro-1,3-benzoxazol-2-yl)spiro[3.3]heptan-2-yl]-2-(1-piperidyl)pyridine-4-carboxamide], for which the CC50 at 144 h in data set [1] was above 10 µM. Besides, the IC50 turned out to be 4.05 µM with HBeAg and 4.73 µM with HBsAg.

Compound `CS(=N)(=O)c1cc(C(=O)NC2CC3(C2)CC(c2nc4cc(Cl)ccc4o2)C3)ccn1` (stereo not drawn) [Example 89, N-[6-(5-chloro-1,3-benzoxazol-2-yl)spiro[3.3]heptan-2-yl]-2-(methylsulfonimidoyl)pyridine-4-carboxamide] yielded a CC50 at 144 h in data set [1] above 100 µM. Further, the IC50 in the data set with HBeAg worked out at 0.86 µM; in the data set with HBsAg it was 2.45 µM.

Consider `CCCS(=O)(=O)N1CCC(C(=O)NC2CC3(C2)CC(c2nc4cc(Cl)ccc4o2)C3)C1` (stereo not drawn) [Example 71, N-[6-(5-chloro-1,3-benzoxazol-2-yl)spiro[3.3]heptan-2-yl]-1-propylsulfonyl-pyrrolidine-3-carboxamide], for which, in data set [1], the CC50 at 144 h was above 10 µM. Further, the IC50 in the data set on HBeAg worked out at 9.43 µM; in the data set with HBsAg, 9.73 µM.

In data set [1], `O=C(NC1CC2(C1)CC(c1nc3cc(Cl)ccc3o1)C2)c1ccnc(S(=O)(=O)C2CNC2)c1` (stereo not drawn) [Example 98, 2-(Azetidin-3-ylsulfonyl)-N-[6-(5-chloro-1,3-benzoxazol-2-yl)spiro[3.3]heptan-2-yl]pyridine-4-carboxamide] showed a CC50 at 144 h above 10 µM. For the same compound, the IC50 is 3.08 µM with HBeAg and 3.59 µM with HBsAg.

These data come from patent US20230286968A1, “ARYLOXAZOLO SPIRAL RING DERIVATIVES FOR THE TREATMENT AND PROPHYLAXIS OF HEPATITIS B VIRUS INFECTION” (Hoffmann-La Roche Inc., priority 2020, published 2023).
